This is an account of results in publication PMC12040169 (PLOS Biology, 2025).

This data set is described as follows: in vitro. As to conditions: human, hela cells, % viability.

SMILES strings stand for the structures.

Consider `OCc1ccc(-c2cncc(-c3ccc(O)cc3)n2)cc1` [CBK123792], for which the viability (as a rule, a read-out of living cells in per cent, often relative to untreated cells) at 28.5 h, 10 µM stood at 91.4%.
`CC(=O)Nc1cccc(-c2cncc(-c3ccc(O)cc3)n2)c1` [CBK123795]: the viability at 28.5 h, 10 µM amounted to 77.8%.
With `O=C(c1cccc(-c2cncc(-c3ccc(O)cc3)n2)c1)N1CCOCC1` [CBK123796], the viability at 28.5 h, 10 µM was found to be 100%.
As to `CC(C)OC(=O)c1cc2c(ccn2-c2ccc(F)cc2)n1CCC#N` [CBK123921], the viability at 28.5 h, 10 µM was 95%.
Regarding `CCC1(CC)OC(N[C@@H](C)c2ccc3ccccc3c2)=NC1=O` [CBK123982], the viability at 28.5 h, 10 µM amounted to 90.2%.
For the compound `CCC1(CC)OC(NC[C@@H](C)c2ccccc2)=NC1=O` [CBK123983], the viability at 28.5 h, 10 µM was 116%.
Still for that read-out and setting: for `Nc1ncc(-c2ccc(C(=O)N3CCOCC3)cc2)nc1-c1cccnc1` [CBK126356] the value was 106%; for `Nc1ncc(-c2ccc(C(=O)N3CCOCC3)cc2)nc1-c1ccc(C[C@H](N)C(=O)O)cc1` [CBK126364], 97%; for `Nc1ncc(-c2ccc(C(=O)N3CCOCC3)cc2)nc1-c1ccc(CCC(=O)O)cc1` [CBK126368], 97.3%.
Take `CC(C)(O)C1(C)OC(NC2C3CC4CC(C3)CC2C4)=NC1=O` (stereo not drawn) [CBK126370]: the viability at 28.5 h, 10 µM came to 91.2%.
`N#Cc1cccc(CN2CCC(Cc3ccccc3)CC2)c1` [CBK126380]: the viability at 28.5 h, 10 µM worked out at 87.1%.
Same read-out and setting: for `c1ccc(CC2CCN(CCc3c[nH]c4ccccc34)CC2)cc1` [CBK126385] the value was 94.9%.
Regarding `O=S(=O)(CCN1CCC(Cc2ccccc2)CC1)c1ccccc1` [CBK126386], the viability at 28.5 h, 10 µM came to 94.9%.
On the same count and under the same terms, for `O=C(CN1CCC(Cc2ccccc2)CC1)Nc1ccc(F)c(Cl)c1` [CBK126387] the value was 92.4%.
On to `c1ccc(CC2CCN(CCC(c3ccccc3)c3ccccc3)CC2)cc1` [CBK126389], for which the viability at 28.5 h, 10 µM turned out to be 102%.
For the compound `COc1cc2c(cc1OC)CN(CC(N)=O)CC2` [CBK126391], the viability at 28.5 h, 10 µM stood at 86.8%.
Take `Clc1ccc(CN2CCc3ccccc3C2)cc1Cl` [CBK126395]: the viability at 28.5 h, 10 µM stood at 103%.
`c1ccc2c(c1)CCN(Cc1nc3ccccc3[nH]1)C2` [CBK126396]: the viability at 28.5 h, 10 µM worked out at 92.2%.
Take `c1ccc2c(c1)CCN(Cc1ccc3ccccc3c1)C2` [CBK126397]: the viability at 28.5 h, 10 µM was determined as 122%.
With `c1ccc2c(c1)CCN(Cc1ncc[nH]1)C2` [CBK126402], the viability at 28.5 h, 10 µM came to 94.7%.
Turning to `COc1ccc(OCCN2CCc3ccccc3C2)cc1` [CBK126403], the viability at 28.5 h, 10 µM is 94.8%.
The same measure, in the same setting: for `c1ccc(C(CCN2CCc3ccccc3C2)c2ccccc2)cc1` [CBK126404] the value was 99.1%.
In the case of `COc1ccc(Cl)cc1N1CCN(Cc2c(F)cccc2F)CC1` [CBK126410], under “bulk resorufin, single well”, the viability at 28.5 h, 10 µM amounted to 90.9%.
With `COc1ccc(Cl)cc1N1CCN(CC(=O)Nc2ccc(F)c(Cl)c2)CC1` [CBK126417], the viability at 28.5 h, 10 µM stood at 101%.
Same read-out and setting: for `COc1ccc(Cl)cc1N1CCN(Cc2ncc[nH]2)CC1` [CBK126418] the value was 98.1%; for `Clc1ccc(CN2CCN(CCc3ccccc3)CC2)cc1Cl` [CBK126420], 96.3%.
Still for that read-out and setting: under `c1ccc(CCN2CCN(Cc3cccnc3)CC2)cc1` [CBK126424] stands 103%.
Turning to `c1ccc(CCN2CCN(CCC(c3ccccc3)c3ccccc3)CC2)cc1` [CBK126432], the viability at 28.5 h, 10 µM was 85.4%.
In the case of `c1ccc(CC2CCN(CCOc3ccccc3)CC2)cc1` [CBK126433], the viability at 28.5 h, 10 µM came to 107%.
For the compound `c1ccc(CCN2CCC(Cc3ccccc3)CC2)cc1` [CBK126434], the viability at 28.5 h, 10 µM worked out at 96.3%.
Regarding `COc1cccc(CN2CCC(Cc3ccccc3)CC2)c1` [CBK126436], the viability at 28.5 h, 10 µM amounted to 103%.
On to `COc1cc2c(cc1OC)CN(CCN1CCCCC1)CC2` [CBK126439], for which the viability at 28.5 h, 10 µM was found to be 101%.
On to `COc1cccc(CN2CCc3cc(OC)c(OC)cc3C2)c1` [CBK126441], for which the viability at 28.5 h, 10 µM came out at 102%.
